Measured values taken from patent US11917959B2, “Multi-ear system to enhance monocot plant yield” (Monsanto Technology LLC, priority 2015, dated 2024).

Test system: eleven corn inbred germplasm
Assay: Chemistry treatment of eleven corn inbred germplasm at V3 or V8 (Example 12)
Format: in vivo
Conditions: for Avg Kernels from Main Stem / Avg Total Kernels Per Plant: auto-self
Text: Seeds for eleven corn inbred germplasm was planted in six-packs and grown in greenhouses under standard conditions as outlined in Example 1. At thirteen days after germination the seedlings for the eleven different germplasm (20 plants per germplasm) were transplanted into standard pots. […]

[1] = pedigree A, 3HV: 14DAP, 4 mg/plant, 2% 50 mL
[2] = pedigree A, 3LV: 14DAP, 4 mg/plant, 6.25% 16 mL
[3] = pedigree A, 8HV: 28DAP, 8 mg/plant, 2% 100 mL
[4] = pedigree A, 8LV: 28DAP, 8 mg/plant, 13% 16 mL
[5] = pedigree B, 3HV: 14DAP, 6 mg/plant, 3% 50 mL
[6] = pedigree B, 3LV: 14DAP, 6 mg/plant, 9.38% 16 mL
[7] = pedigree B, 8HV: 28DAP, 16 mg/plant, 4% 100 mL
[8] = pedigree B, 8LV: 28DAP, 16 mg/plant, 25% 16 mL
[9] = pedigree C, 3LV: 14DAP, 6 mg/plant, 9.38% 16 mL
[10] = pedigree C, 8HV: 28DAP, 16 mg/plant, 4% 100 mL
[11] = pedigree C, 8LV: 28DAP, 16 mg/plant, 25% 16 mL
[12] = pedigree D, 3HV: 14DAP, 6 mg/plant, 3% 50 mL
[13] = pedigree D, 3LV: 14DAP, 6 mg/plant, 9.38% 16 mL
[14] = pedigree D, 8HV: 28DAP, 16 mg/plant, 4% 100 mL
[15] = pedigree D, 8LV: 28DAP, 16 mg/plant, 25% 16 mL
[16] = pedigree E, 3HV: 14DAP, 6 mg/plant, 3% 50 mL
[17] = pedigree E, 3LV: 14DAP, 6 mg/plant, 9.38% 16 mL
[18] = pedigree E, 8HV: 28DAP, 16 mg/plant, 4% 100 mL
[19] = pedigree E, 8LV: 28DAP, 16 mg/plant, 25% 16 mL
[20] = pedigree F, 3HV: 14DAP, 6 mg/plant, 3% 50 mL
[21] = pedigree F, 3LV: 14DAP, 6 mg/plant, 9.38% 16 mL
[22] = pedigree F, 8HV: 28DAP, 16 mg/plant, 4% 100 mL
[23] = pedigree F, 8LV: 28DAP, 16 mg/plant, 25% 16 mL
[24] = pedigree G, 3HV: 14DAP, 6 mg/plant, 3% 50 mL
[25] = pedigree G, 3LV: 14DAP, 6 mg/plant, 9.38% 16 mL
[26] = pedigree G, 8HV: 28DAP, 16 mg/plant, 4% 100 mL
[27] = pedigree G, 8LV: 28DAP, 16 mg/plant, 25% 16 mL
[28] = pedigree H, 3HV: 14DAP, 6 mg/plant, 3% 50 mL
[29] = pedigree H, 3LV: 14DAP, 6 mg/plant, 9.38% 16 mL
[30] = pedigree H, 8HV: 28DAP, 16 mg/plant, 4% 100 mL
[31] = pedigree H, 8LV: 28DAP, 16 mg/plant, 25% 16 mL
[32] = pedigree I, 3HV: 14DAP, 10 mg/plant, 5% 50 mL
[33] = pedigree I, 3LV: 14DAP, 10 mg/plant, 15.63% 16 mL
[34] = pedigree I, 8HV: 28DAP, 32 mg/plant, 8% 100 mL
[35] = pedigree I, 8LV: 28DAP, 32 mg/plant, 50% 16 mL
[36] = pedigree J, 3HV: 14DAP, 10 mg/plant, 5% 50 mL
[37] = pedigree J, 3LV: 14DAP, 10 mg/plant, 15.63% 16 mL
[38] = pedigree J, 8HV: 28DAP, 32 mg/plant, 8% 100 mL
[39] = pedigree J, 8LV: 28DAP, 32 mg/plant, 50% 16 mL
[40] = pedigree K, 3HV: 14DAP, 6 mg/plant, 3% 50 mL
[41] = pedigree K, 8HV: 28DAP, 16 mg/plant, 4% 100 mL
[42] = pedigree K, 8LV: 28DAP, 16 mg/plant, 25% 16 mL
[43] = pedigree K, K3LV: 14DAP, 6 mg/plant, 9.38% 16 mL

## CC(C)(C)[C@@H](O)[C@@H](Cc1ccc(Cl)cc1)n1cncn1 (relative stereo) [PBZ, (±)-(R*, R*)-beta-((4-chlorophenyl)methyl)-alpha-(1,1,-dimethylethyl)-1H-1,2,4,-triazole-1-ethanol]
Diverse germplasm treated at V3 (14DAP) or V8 (28DAP), FIG. 11
  kernel number per plant: average increase in kernel number per plant
Every germplasm tested, FIG. 10
  decrease in height, on average: 30-50%
[1]
  Avg Kernels from Main Stem: 330.50
  Avg Total Kernels Per Plant: 351.00
[2]
  Avg Kernels from Main Stem: 352.25
  Avg Total Kernels Per Plant: 515.75
[3]
  Avg Kernels from Main Stem: 337.00
  Avg Total Kernels Per Plant: 345.75
[4]
  Avg Kernels from Main Stem: 366.50
  Avg Total Kernels Per Plant: 413.00
[5]
  Avg Kernels from Main Stem: 204.00
  Avg Total Kernels Per Plant: 215.50
[6]
  Avg Kernels from Main Stem: 260.25
  Avg Total Kernels Per Plant: 291.25
[7]
  Avg Kernels from Main Stem: 567.00
  Avg Total Kernels Per Plant: 567.25
[8]
  Avg Kernels from Main Stem: 427.00
  Avg Total Kernels Per Plant: 432.75
[9]
  Avg Kernels from Main Stem: 291.50
  Avg Total Kernels Per Plant: 611.25
[10]
  Avg Kernels from Main Stem: 148.00
  Avg Total Kernels Per Plant: 255.25
[11]
  Avg Kernels from Main Stem: 325.75
  Avg Total Kernels Per Plant: 513.25
[12]
  Avg Kernels from Main Stem: 616.75
  Avg Total Kernels Per Plant: 766.25
[13]
  Avg Kernels from Main Stem: 631.25
  Avg Total Kernels Per Plant: 839.25
[14]
  Avg Kernels from Main Stem: 581.75
  Avg Total Kernels Per Plant: 646.75
[15]
  Avg Kernels from Main Stem: 727.75
  Avg Total Kernels Per Plant: 745.50
[16]
  Avg Kernels from Main Stem: 334.50
  Avg Total Kernels Per Plant: 405.25
[17]
  Avg Kernels from Main Stem: 291.25
  Avg Total Kernels Per Plant: 422.50
[18]
  Avg Kernels from Main Stem: 532.50
  Avg Total Kernels Per Plant: 678.25
[19]
  Avg Kernels from Main Stem: 583.25
  Avg Total Kernels Per Plant: 772.75
[20]
  Avg Kernels from Main Stem: 414.75
  Avg Total Kernels Per Plant: 1078.75
[21]
  Avg Kernels from Main Stem: 392.00
  Avg Total Kernels Per Plant: 777.75
[22]
  Avg Kernels from Main Stem: 301.00
  Avg Total Kernels Per Plant: 442.25
[23]
  Avg Kernels from Main Stem: 461.00
  Avg Total Kernels Per Plant: 661.00
[24]
  Avg Kernels from Main Stem: 381.50
  Avg Total Kernels Per Plant: 905.50
[25]
  Avg Kernels from Main Stem: 485.50
  Avg Total Kernels Per Plant: 1033.50
[26]
  Avg Kernels from Main Stem: 284.50
  Avg Total Kernels Per Plant: 567.00
[27]
  Avg Kernels from Main Stem: 542.75
  Avg Total Kernels Per Plant: 728.25
[28]
  Avg Kernels from Main Stem: 77.50
  Avg Total Kernels Per Plant: 80.00
[29]
  Avg Kernels from Main Stem: 73.25
  Avg Total Kernels Per Plant: 83.00
[30]
  Avg Kernels from Main Stem: 388.50
  Avg Total Kernels Per Plant: 520.00
[31]
  Avg Kernels from Main Stem: 439.75
  Avg Total Kernels Per Plant: 564.75
[32]
  Avg Kernels from Main Stem: 172.00
  Avg Total Kernels Per Plant: 218.75
[33]
  Avg Kernels from Main Stem: 175.00
  Avg Total Kernels Per Plant: 191.25
[34]
  Avg Kernels from Main Stem: 508.75
  Avg Total Kernels Per Plant: 550.50
[35]
  Avg Kernels from Main Stem: 448.25
  Avg Total Kernels Per Plant: 448.25
[36]
  Avg Kernels from Main Stem: 587.00
  Avg Total Kernels Per Plant: 1005.75
[37]
  Avg Kernels from Main Stem: 602.75
  Avg Total Kernels Per Plant: 953.25
[38]
  Avg Kernels from Main Stem: 361.50
  Avg Total Kernels Per Plant: 398.75
[39]
  Avg Kernels from Main Stem: 280.50
  Avg Total Kernels Per Plant: 298.75
[40]
  Avg Kernels from Main Stem: 317.75
  Avg Total Kernels Per Plant: 365.00
[41]
  Avg Kernels from Main Stem: 446.75
  Avg Total Kernels Per Plant: 487.00
[42]
  Avg Kernels from Main Stem: 495.00
  Avg Total Kernels Per Plant: 539.75
[43]
  Avg Kernels from Main Stem: 418.75
  Avg Total Kernels Per Plant: 437.75
